Measured values as given in US20060135569A1, “Use of benzisoselenazolone compounds against ischemic myocardial damage” (priority 2002, published 2006).
Marks after values point to notes of the source that are not given here.

What was measured:
[1] = biological target: T1, Na^+/Ca^2+ exchanger (Cavia porcellus, UniProt P48766); assay: Na^+/Ca^2+ exchange current (INa—Ca), whole-cell patch clamp, intracellular Na^+ overload cell model; assay type: cell-based, guinea pig
T1 construct: endogenous in cells; host or cells: freshly isolated guinea pig ventricular myocytes
Procedure, shortened: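 Whole-cell patch clamp on guinea pig ventricular myocytes, Na⁺-loaded via pipette dialysis; holding −40 mV, step to +60 mV, ramp down at 80 mV·s⁻¹ to −100 mV, 0.05 Hz. K⁺, L-type Ca²⁺ and Na⁺/K⁺-ATPase blocked; INa–Ca taken as 5 mmol·L⁻¹ Ni²⁺-sensitive current.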

[2] = test system: normal rats; assay: Cardiac function and hemodynamics in normal rats; assay type: in vivo, rat; conditions: 30 mg/kg orally; normal anesthetized rats
Protocol: Method: Male SD rats, weighing 300-350 g were fasted for 12 hrs and anesthetized by i.p. treatment with 20% Urethane (0.5 ml/100 g, 1 g/kg). Polyethylene tubes (PE-50) were inserted into the left femoral artery, left femoral vein, right femoral vein and the left ventricle. The left femoral artery was cannulated for blood collection, and the left femoral vein was cannulated for liquid compensation, the right femoral artery was cannulated for blood pressure detection, the left ventricle was cannulated for ventricular pressure detection, the left femoral artery and ventricle were cannulated and the catheter was linked with pressure transducer by triplet. Signals were acquired by oscillograph and multi-channel biodynamic recorder linked with the pressure transducer. Rats in drug-treating group were orally administered with IMM-004 at 30 mg/kg, while rats in vehicle control group was orally treated with equal volume of vehicle (PEG). Left ventricular systolic pressure (LVSP), left ventricular end-diastolic pressure (LVEDP), and maximum rate of left ventricular pressure (±dp/dtmax), artery systolic pressure (SP), artery diastolic pressure (DP), mean artery pressure (MAP) and heart rate (HR) were recorded 40 min after the administration. Signals were continuously recorded in every 10 min.

[3] = Acute toxicity study in mice; assay type: in vivo; conditions: male, KM, mouse, in vivo; oral, mice; read-out: LD50 (50% lethal dose)
Protocol: Acute toxicity studies were performed with IMM-004 and IMM-127 (synthesized by ourselves). The compound was provided as powder, which was milled and suspended in 0.5% carboxymethylcellulose sodium (CMC—Na) before use.
Male KM mice weighting 19±2 g were housed for an adaptation before use. Mice were randomly divided into groups, and each group consists of 10 animals. Mice were all fasted for 14 hrs before the administration of the tested compounds. Activity of mice in high dose group was reduced 30 min after the administration. 24 h after the administration, mice in each group were restored to normal. Mice were observed daily for a period of 7 days after the administration.

[4] = Example 1 table, myocardial cell
[5] = screening of 22 candidate compounds

Row | SMILES | Inhibitory rate of inward INa—Ca (%) [1, 4] | Inhibitory rate of outward INa—Ca (%) [1, 4] | Inhibitory rate of inward INa—Ca (%) [1, 5] | Inhibitory rate of outward INa—Ca (%) [1, 5] | LVSP, LVEDP, ±dp/dtmax, SP, DP, MAP and heart rate (HR) [2] | LD50 at 7 days [3]
1 | O=c1c2cc(F)ccc2[se]n1-c1ccccn1 [IMM-127, 5-fluoro-2-(2-pyridyl)-1,2-benz-isoselenazol-3(2H)-one] | 21% | 43% | 21% | 43* % | – | –
2 | O=c1c2cc(Cl)ccc2[se]n1-c1ccccn1 [IMM-004, 5-chloro-2-(2-pyridyl)-1,2-benz-isoselenazol-3(2H)-one] | 44% | 52% | 44% | 52* % | not significantly influenced | > 5000 mg/kg
